Patent US10703746B2, “Mutant IDH1 inhibitors useful for treating cancer” (THE UNITED STATES OF AMERICA, AS REPRESENTED BY THE …, priority 2014, dated 2020)

What was measured:
IDH1 R132H = IDH1 R132H (Homo sapiens, UniProt O75874, R132H); test: IDH1 R132H enzymatic assay (NADPH depletion coupled to diaphorase/resazurin); format: biochemical; conditions: IDH1 R132H enzymatic inhibition, IC50 class
IDH1 R132C = IDH1 R132C (Homo sapiens, UniProt O75874, R132C); test: IDH1 R132C enzymatic assay (NADPH depletion coupled to diaphorase/resazurin); format: biochemical; conditions: IDH1 R132C enzymatic inhibition, IC50 class
Chain of IDH1 R132C (O75874 whole entry R132C): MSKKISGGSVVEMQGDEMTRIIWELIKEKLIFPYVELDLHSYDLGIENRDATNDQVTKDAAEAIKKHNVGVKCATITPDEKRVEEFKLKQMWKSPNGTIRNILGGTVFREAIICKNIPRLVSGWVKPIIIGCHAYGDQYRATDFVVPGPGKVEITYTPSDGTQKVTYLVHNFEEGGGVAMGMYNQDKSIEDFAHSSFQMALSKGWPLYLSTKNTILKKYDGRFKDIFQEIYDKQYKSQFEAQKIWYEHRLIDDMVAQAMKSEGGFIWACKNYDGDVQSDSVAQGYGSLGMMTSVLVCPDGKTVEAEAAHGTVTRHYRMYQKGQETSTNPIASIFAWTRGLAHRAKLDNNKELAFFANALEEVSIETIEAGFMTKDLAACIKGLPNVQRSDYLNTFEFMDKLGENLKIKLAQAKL
Outline: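 NADPH depletion, read via diaphorase/resazurin coupling, after adding substrate at 0.6 mM α-KG and 0.012 mM NADPH. Beforehand, 0.00032 mg/mL enzyme sat with compound 30 min at room temperature in pH 6.5 potassium phosphate buffer with MgCl2, glycerol and BSA.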

Chain of IDH1 R132H (O75874 whole entry R132H): as the sequence (O75874 whole entry R132C) above, with C132H counted along it

Row | IC50 (IDH1 R132H) [nM] | IC50 (IDH1 R132C) [nM] | SMILES
1 | 1000 to 5000 | 1000 to 5000 | CCc1cccc(CC)c1-n1c(C)c(C(=O)NC(C)C)cc(-c2nc(-c3ccc(Cl)cc3)cs2)c1=O [Compound 311]
2 | 1000 to 5000 | 300 to 1000 | CCc1cccc(CC)c1-n1c(CC(C)C)c(C(=O)N2CCCCC2CO)cc(-c2nc(-c3ccc(Cl)cc3)cs2)c1=O (stereo not drawn) [Compound 312]
3 | > 20000 | 1000 to 5000 | CCc1cccc(CC)c1-n1c(C)c(C(=O)NCC(C)C)cc(-c2nc(-c3ccc(Cl)cc3)cs2)c1=O [Compound 313]
4 | 300 to 1000 | 300 to 1000 | CCc1cccc(CC)c1-n1c(CC(C)C)c(C(=O)N2CCNC(C(F)(F)F)C2)cc(-c2nc(-c3ccc(Cl)cc3)cs2)c1=O (stereo not drawn) [Compound 314]
5 | 300 to 1000 | 1000 to 5000 | CCc1ncc(F)cc1-n1c(C=C(C)C)c(C(=O)N2CCNCC2)cc(-c2nc(-c3ccc(C(F)(F)F)nc3)cs2)c1=O [Compound 315]
6 | < 300 | < 300 | CC(C)=Cc1c(C(=O)N2CCNCC2)cc(-c2nc(-c3ccc(Cl)cc3)cs2)c(=O)n1-c1cc(F)cnc1OC(C)C [Compound 316]
7 | 5000 to 20000 | 1000 to 5000 | CCc1cccc(CC)c1-n1c(-c2ccn(-c3ccccc3)n2)c(C(=O)N2CCNCC2)cc(-c2nc(-c3ccc(Cl)cc3)cs2)c1=O [Compound 317]
8 | 1000 to 5000 | 1000 to 5000 | COc1ccc(F)cc1-n1c2c(cc(-c3nc(-c4ccc(Cl)cc4)cs3)c1=O)C(=O)CCC2 [Compound 318]
9 | 5000 to 20000 | 5000 to 20000 | COc1cccc(CN2CCN(C)CC2)c1-n1c2c(cc(-c3nc(-c4ccc(Cl)cc4)cs3)c1=O)C(=O)CC(C)(C)C2 [Compound 319]
10 | 300 to 1000 | < 300 | CCc1cccc(CC)c1-n1c(C=C(C)C)c(C(=O)N2CCC3(CCNC3)C2)cc(-c2nc(-c3ccc(Cl)cc3)cs2)c1=O (stereo not drawn) [Compound 320]
11 | 300 to 1000 | 300 to 1000 | CCc1cccc(CC)c1-n1c(CC(C)C)c(C(=O)N2CCNCC2)cc(-c2nc(-c3ccc(OC)nc3)c(C)s2)c1=O [Compound 322]
12 | < 300 | < 300 | CCc1cccc(CC)c1-n1c(C=C(C)C)c(C(=O)N2C[C@H]3CC[C@@H](C2)N3)cc(-c2nc(-c3ccc(C(F)(F)F)cc3)cs2)c1=O [Compound 323]
13 | < 300 | < 300 | CCc1cccc(CC)c1-n1c(C=C(C)C)c(C(=O)N2CCNC3(CC3)C2)cc(-c2nc(-c3ccc(C(F)(F)F)cc3)cs2)c1=O [Compound 324]
14 | < 300 | 300 to 1000 | CCOc1ncc(C)cc1-n1c(C=C(C)C)c(C(=O)N2CCNCC2)cc(-c2nc(-c3ccc(C(F)F)nc3)cs2)c1=O [Compound 326]
15 | < 300 | < 300 | CCc1ncc(F)cc1-n1c(C=C(C)C)c(C(=O)N2CCNCC2)cc(-c2nc(-c3ccc(C(F)(F)F)cc3)cs2)c1=O [Compound 328]
16 | < 300 | < 300 | CCOc1ccc(F)cc1-n1c(C=C(C)C)c(C(=O)N2CCNCC2)cc(-c2nc(-c3ccc(C(F)(F)F)cc3)cs2)c1=O [Compound 329]
17 | < 300 | 300 to 1000 | CCc1ncc(C)cc1-n1c(C=C(C)C)c(C(=O)N2CCNCC2)cc(-c2nc(-c3ccc(Cl)cc3)cs2)c1=O [Compound 330]
18 | < 300 | 300 to 1000 | CCOc1ncccc1-n1c(C=C(C)C)c(C(=O)N2CCNCC2)cc(-c2nc(-c3ccc(Cl)cc3)cs2)c1=O [Compound 331]
19 | 300 to 1000 | < 300 | CCc1cccc(CC)c1-n1c(C=C(C)C)c(C(=O)N2CCNCC2C(C)C)cc(-c2nc(-c3ccc(Cl)cc3)cs2)c1=O (stereo not drawn) [Compound 332]
20 | < 300 | < 300 | CCc1ccc(N(C)C)cc1-n1c(C=C(C)C)c(C(=O)N2CCNCC2)cc(-c2nc(-c3ccc(Cl)cc3)cs2)c1=O [Compound 333]

Row | IC50 (IDH1 R132H) [nM] | IC50 (IDH1 R132C) [nM] | SMILES
21 | 300 to 1000 | 1000 to 5000 | CCc1ncc(OC)cc1-n1c(C=C(C)C)c(C(=O)N2CCNCC2)cc(-c2nc(-c3ccc(C(F)(F)F)nc3)cs2)c1=O [Compound 334]
22 | < 300 | < 300 | CCc1cccc(CC)c1-n1c(C=C(C)C)c(C(=O)N2CCNCC2)cc(-c2nc(-c3ccc(C(F)F)cc3)cs2)c1=O [Compound 336]
23 | < 300 | < 300 | CCc1cccc(CC)c1-n1c(C=C(C)C)c(C(=O)N2CCNC(=O)C2CC(=O)O)cc(-c2nc(-c3ccc(Cl)cc3)cs2)c1=O (stereo not drawn) [Compound 337]
24 | 1000 to 5000 | 300 to 1000 | CCc1cccc(CC)c1-n1c2c(cc(-c3nc(-c4ccc(Cl)cc4)cs3)c1=O)C(=O)N(C)C2C(C)C (stereo not drawn) [Compound 338]
25 | 5000 to 20000 | 1000 to 5000 | O=C1CCCc2c1cc(-c1nc(-c3ccc(Cl)cc3)cs1)c(=O)n2-c1ccccc1CN1CCOCC1 [Compound 339]
26 | 300 to 1000 | 300 to 1000 | CCc1cccc(CC)c1-n1c(CC(C)C)c(C(=O)N2CCNCC2)cc(-c2nc(-c3ccc(Cl)cc3)co2)c1=O [Compound 340]
27 | 300 to 1000 | 1000 to 5000 | CC(C)=Cc1c(C(=O)N2CCNCC2)cc(-c2nc(-c3ccc(Cl)cc3)cs2)c(=O)n1-c1ccccc1 [Compound 341]
28 | 5000 to 20000 | 5000 to 20000 | Cc1cc(CO)ccc1-n1c2c(cc(-c3nc(-c4ccc(Cl)cc4)cs3)c1=O)C(=O)CCC2 [Compound 342]
29 | 1000 to 5000 | 1000 to 5000 | O=C1CCCc2c1cc(-c1nc(-c3ccc(Cl)cc3)cs1)c(=O)n2-c1ccccc1OCC(F)(F)F [Compound 343]
30 | 300 to 1000 | < 300 | CCc1cccc(CC)c1-n1c(C=C(C)C)c(C(=O)N2CC3(CCNC3)C2)cc(-c2nc(-c3ccc(Cl)cc3)cs2)c1=O [Compound 344]
31 | 1000 to 5000 | 1000 to 5000 | CCc1cccc(CC)c1-n1c(C=C(C)C)c(C(=O)N2CCNCC2)cc(-c2nn(-c3ccc(Cl)cc3)cc2Cl)c1=O [Compound 345]
32 | 300 to 1000 | 300 to 1000 | Cc1cc(C#N)c(-n2c3c(cc(-c4nc(-c5ccc(Cl)cc5)cs4)c2=O)C(=O)CC(C)(C)C3)s1 [Compound 346]
33 | 5000 to 20000 | 5000 to 20000 | CCOC(=O)c1c(O)c(-c2nc(-c3ccc(Cl)cc3)cs2)c(=O)n(-c2c(CC)cccc2CC)c1C [Compound 347, ethyl 5-(4-(4-chlorophenyl)thiazol-2-yl)-1-(2,6-diethylphenyl)-4-hydroxy-2-methyl-6-oxo-1,6-dihydropyridine-3-carboxylate]
34 | < 300 | < 300 | CCOc1ccc(OCC)c(-n2c(C=C(C)C)c(C(=O)N3CCNCC3)cc(-c3nc(-c4ccc(Cl)cc4)cs3)c2=O)c1 [Compound 348]
35 | < 300 | < 300 | CCc1cccc(CC)c1-n1c(C=C(C)C)c(C(=O)N2CCNCC2)cc(-c2ccn(-c3ccc(Cl)cc3)n2)c1=O [Compound 349]
36 | > 20000 | > 20000 | O=C1CCCc2c1cc(-c1nc(-c3ccc(Cl)cc3)cs1)c(=O)n2-c1ccccn1 [Compound 350]
37 | 5000 to 20000 | 5000 to 20000 | COc1ncc(C2=CCNCC2)cc1-n1c2c(cc(-c3nc(-c4ccc(Cl)cc4)cs3)c1=O)C(=O)CC(C)(C)C2 [Compound 351]
38 | < 300 | < 300 | CCc1ccc(F)cc1-n1c(C=C(C)C)c(C(=O)N2CCNCC2)cc(-c2nc(-c3ccc(Cl)cc3)cs2)c1=O [Compound 352]
39 | < 300 | < 300 | CCOc1ccc(Cl)c(-n2c(C=C(C)C)c(C(=O)N3CCNCC3)cc(-c3nc(-c4ccc(Cl)cc4)cs3)c2=O)c1 [Compound 354]
